Biological target: P. falciparum apicoplast DNA polymerase (Pf-apPOL) (Plasmodium falciparum, UniProt Q8ILY1)
Assay: Fluorescence-based high-throughput DNA polymerase assay (molecular beacon), primary screen and dose-response
Format: biochemical
Conditions: for DNA Pol: 90 min, 10 µM
Description: The HT assay employs a molecular beacon, a stem-loop DNA template with a Cy3 dye and the Black Hole Quencher on the 3′ and 5′ ends of the DNA, respectively. Pf-apPOL concentration is based on a calculated absorptivity of ε280 = 56750 M^−1 cm^−1. Reactions were carried out at 25 °C, using Corning 3575 […] (well-volume, 20 µL). Assays testing for compound inhibition composed of reaction buffer (pH 7.9 in 50 mM potassium acetate, 20 mM Tris-acetate and 10 mM magnesium acetate), Pf-apPOL (20 nM), DNA substrate (20 nM), dNTPs (6 µM), and compound (10 µM in DMSO). The DNA and nucleotide substrates (dNTPs) were at concentrations of 20 nM and 6 µM, respectively, in the assay. Pf-apPOL was incubated in the reaction buffer with dNTPs and the compound of interest (10 µM, in the assay) at 25 °C for 10 min. The DNA substrate was then added and the reaction was allowed to proceed for 90 min at 25 °C.
Each assay plate contained 16 negative controls (no Pf-apPOL, DMSO present) and 16 positive controls (Pf-apPOL present, no DMSO). The fluorescence of each well was determined using a BioTek Synergy Neo fluorescence plate reader using excitation and emission wavelengths of 555 and 570 nm, respectively.
In the above, Min is the average of fluorescence emission of the negative controls (substrate only), Max the average fluorescence emission from the positive controls (enzyme + substrate), and Test the emission from the assays in the presence of compounds (enzyme + compound + substrates). […] […] The IC50 of each compound was determined using Equation (2): (2) IC50= Vmax/(1+ (I/IC50)^n)
In the above, n measures cooperativity, with n > 1 indicating synergistic binding of more than a single molecule of the compound.
To identify apPOL inhibitors we utilised our previously developed high-throughput DNA polymerase assay. The HT assay is based on a molecular beacon DNA template that forms a stem-loop with a Cy3 dye and the Black Hole Quencher on the 3′ and 5′ ends of the DNA, respectively. DNA polymerase activity extends an annealed primer through the stem region, displacing the fluorophore from the quencher, thereby increasing its fluorescence (Figure 1(A)). The assay accurately recapitulates the kinetic behaviour of apPOL, as measured through more conventional low-throughput gel-based assays. The Z′ factor for the assay described here was 0.9 across all plates (data not shown).
Figure 1. High-throughput screening. (A) The fluorescent-based DNA polymerase assay used to screen the compound libraries. The DNA template strand is a hairpin loop with a primer annealed to the loop. The 3’ end of the primer is 11 bases away from the 6 bp duplex. Strand displacement activity of the DNA polymerase separates the Cy3 dye from the Black hole quencher leading to an increase in fluorescent signal. (B) The high-throughput assay workflow. The DNA polymerase is incubated with […] compound for 10 min prior to addition of the hairpin substrate. The reaction is quenched at 3 different time points and the fluorescent signal is measured and % inhibition is determined using the provided equation.

[1] = 'DNA Pol', screening value, unit not given
[2] = conc 5 (unit not given), 90', DRC-2
[3] = conc 20 (unit not given), 5', DRC-2
[4] = primary screen hit value, DNA Pol (186 hits)

Chain of P. falciparum apicoplast DNA polymerase (Pf-apPOL) (Q8ILY1 entry or part of it): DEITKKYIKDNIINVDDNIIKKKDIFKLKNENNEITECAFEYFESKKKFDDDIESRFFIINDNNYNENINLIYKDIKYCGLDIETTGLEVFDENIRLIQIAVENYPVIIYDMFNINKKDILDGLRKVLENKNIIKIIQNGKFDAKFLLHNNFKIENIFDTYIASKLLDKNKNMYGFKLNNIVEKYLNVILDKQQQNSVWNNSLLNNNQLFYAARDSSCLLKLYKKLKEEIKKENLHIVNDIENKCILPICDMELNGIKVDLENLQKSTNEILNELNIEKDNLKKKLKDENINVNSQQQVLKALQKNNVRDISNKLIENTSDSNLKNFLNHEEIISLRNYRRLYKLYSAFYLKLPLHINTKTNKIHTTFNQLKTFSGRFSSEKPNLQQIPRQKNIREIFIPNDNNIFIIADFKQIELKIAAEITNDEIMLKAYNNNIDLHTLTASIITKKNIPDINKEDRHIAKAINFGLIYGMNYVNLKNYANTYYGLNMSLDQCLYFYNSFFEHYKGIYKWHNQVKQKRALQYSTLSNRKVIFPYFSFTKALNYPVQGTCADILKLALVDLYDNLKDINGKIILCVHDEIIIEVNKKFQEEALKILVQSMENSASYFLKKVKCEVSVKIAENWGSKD

With `O=C(Nc1ncc([N+](=O)[O-])s1)c1ccc2c(c1)C(=O)N(N1C(=O)c3ccccc3C1=O)C2=O` [KU0026378] the “DNA Pol” value [1] was 40, the “% inhibition Apo pol 10'” value (DRC-1, concentration 2.5) was 7.75% and the “% inhibition Apo pol 10'” value (DRC-1, concentration 5) was 18.061%. The “% inhibition Apo pol 10'” value (DRC-1, concentration 10) was 26.4428%, the “% inhibition Apo pol 10'” value (DRC-1, concentration 20) was 47.1491% and the “% inhibition Apo pol 10'” value (DRC-1, concentration 40) was 69.5136%. The “% inhibition Apo pol 10'” value (DRC-1, concentration 80) was 81.7904%, the “% inhibition Apol 90'” value (DRC-1, 90', concentration 2.5) was 0.8654% and the “% inhibition Apol 90'” value (DRC-1, 90', concentration 5) was 10.2523%. The “% inhibition Apol 90'” value (DRC-1, 90', concentration 10) was 17.1111%, the “% inhibition Apol 90'” value (DRC-1, 90', concentration 20) was 31.377% and the “% inhibition Apol 90'” value (DRC-1, 90', concentration 40) was 49.9666%. For the same compound, the “% inhibition Apol 90'” value (DRC-1, 90', concentration 80) was 63.8905%, the “% inhibition apPOL 180'” value (DRC-1, 180', concentration 2.5) was -2.09% and the “% inhibition apPOL 180'” value (DRC-1, 180', concentration 5) was 6.201%. The “% inhibition apPOL 180'” value (DRC-1, 180', concentration 10) was 13.1954%, the “% inhibition apPOL 180'” value (DRC-1, 180', concentration 20) was 24.5599% and the “% inhibition apPOL 180'” value (DRC-1, 180', concentration 40) was 40.1737%. The “% inhibition apPOL 180'” value (DRC-1, 180', concentration 80) was 53.133%, the “% inhibition Apo pol 5'” value (DRC-2, 5', concentration 2.5) was 8% and the “% inhibition Apo pol 5'” value (DRC-2, 5', concentration 5) was 8.46%. The “% inhibition Apo pol 5'” value (DRC-2, 5', concentration 10) was 25%, the “% inhibition Apo pol 5'” value (DRC-2, 5', concentration 20) was 36% and the “% inhibition Apo pol 5'” value (DRC-2, 5', concentration 40) was 51%. For the same compound, the “% inhibition Apo pol 5'” value (DRC-2, 5', concentration 80) was 55%, the “% inhibition Apol 40'” value (DRC-2, 40', concentration 2.5) was 9% and the “% inhibition Apol 40'” value (DRC-2, 40', concentration 5) was 9%. For the same compound, the “% inhibition Apol 40'” value (DRC-2, 40', concentration 10) was 26%, the “% inhibition Apol 40'” value (DRC-2, 40', concentration 20) was 40% and the “% inhibition Apol 40'” value (DRC-2, 40', concentration 40) was 62%. The “% inhibition Apol 40'” value (DRC-2, 40', concentration 80) was 73%, the “% inhibition ApPOL 90'” value (DRC-2, 90', concentration 2.5) was 8% and the “% inhibition ApPOL 90'” value (DRC-2, 90', concentration 5) was 9%. For the same compound, the “% inhibition ApPOL 90'” value (DRC-2, 90', concentration 10) was 26%, the “% inhibition ApPOL 90'” value (DRC-2, 90', concentration 20) was 39% and the “% inhibition ApPOL 90'” value (DRC-2, 90', concentration 40) was 63%. For the same compound, the “% inhibition ApPOL 90'” value (DRC-2, 90', concentration 80) was 75%, the “% inhibition apPOL 180'” value (DRC-2, 180', concentration 2.5) was 6% and the “% inhibition apPOL 180'” value (DRC-2, 180', concentration 5) was 9%. For the same compound, the “% inhibition apPOL 180'” value (DRC-2, 180', concentration 10) was 24%, the “% inhibition apPOL 180'” value (DRC-2, 180', concentration 20) was 36% and the “% inhibition apPOL 180'” value (DRC-2, 180', concentration 40) was 59%. For the same compound, the “% inhibition apPOL 180'” value (DRC-2, 180', concentration 80) was 74%, the “% inhibition Apo pol 5'” value (conc 2.5 (unit not given), 5', DRC-2) was 8% and the “% inhibition Apol 40'” value (conc 2.5 (unit not given), 40', DRC-2) was 9%. For the same compound, the “% inhibition ApPOL 90'” value (conc 2.5 (unit not given), 90', DRC-2) was 8%, the “% inhibition Apol 40'” value (conc 5 (unit not given), 40', DRC-2) was 9% and the “% inhibition ApPOL 90'” value [2] was 9%. For the same compound, the “% inhibition apPOL 180'” value (conc 5 (unit not given), 180', DRC-2) was 9%, the “% inhibition Apol 40'” value (conc 10 (unit not given), 40', DRC-2) was 26% and the “% inhibition ApPOL 90'” value (conc 10 (unit not given), 90', DRC-2) was 26%. For the same compound, the “% inhibition Apo pol 5'” value [3] was 36%, the “% inhibition apPOL 180'” value (conc 20 (unit not given), 180', DRC-2) was 36% and the “DNA Pol” value [4] was 40.
`CCCCOC(=O)CCCCCN1C(=O)C(=Cc2ccc(OC)cc2)SC1=S` [Molecule 75] was tested, and the IC50 (supplemental file 2, sheet IC50 nontoxic compounds, Pf-apPOL) was 56.7 µM.
For `CCOc1ccccc1-c1nc(-c2ccc(=O)[nH]c2)no1` [Molecule 76, CCOc1ccccc1c1onc(n1)c1ccc(=O)[nH]c1], the “DNA Pol” value [1] was 20, the “% inhibition Apo pol 10'” value (DRC-1, concentration 2.5) was 0.6967% and the “% inhibition Apo pol 10'” value (DRC-1, concentration 5) was 11.2745%. For the same compound, the “% inhibition Apo pol 10'” value (DRC-1, concentration 10) was 18.9586%, the “% inhibition Apo pol 10'” value (DRC-1, concentration 20) was 38.1067% and the “% inhibition Apo pol 10'” value (DRC-1, concentration 40) was 53.5893%. For the same compound, the “% inhibition Apo pol 10'” value (DRC-1, concentration 80) was 52.085%, the “% inhibition Apol 90'” value (DRC-1, 90', concentration 2.5) was 1.791% and the “% inhibition Apol 90'” value (DRC-1, 90', concentration 5) was 6.12%. The “% inhibition Apol 90'” value (DRC-1, 90', concentration 10) was 9.377%, the “% inhibition Apol 90'” value (DRC-1, 90', concentration 20) was 23.8682% and the “% inhibition Apol 90'” value (DRC-1, 90', concentration 40) was 40.5664%. For the same compound, the “% inhibition Apol 90'” value (DRC-1, 90', concentration 80) was 58.194%, the “% inhibition apPOL 180'” value (DRC-1, 180', concentration 2.5) was 0.4069% and the “% inhibition apPOL 180'” value (DRC-1, 180', concentration 5) was -0.1254%. The “% inhibition apPOL 180'” value (DRC-1, 180', concentration 10) was 3.145%, the “% inhibition apPOL 180'” value (DRC-1, 180', concentration 20) was 13.7998% and the “% inhibition apPOL 180'” value (DRC-1, 180', concentration 40) was 29.3034%. For the same compound, the “% inhibition apPOL 180'” value (DRC-1, 180', concentration 80) was 52.1842%, the “% inhibition Apo pol 5'” value (DRC-2, 5', concentration 2.5) was -5.31% and the “% inhibition Apo pol 5'” value (DRC-2, 5', concentration 5) was 5%. For the same compound, the “% inhibition Apo pol 5'” value (DRC-2, 5', concentration 10) was 19%, the “% inhibition Apo pol 5'” value (DRC-2, 5', concentration 20) was 30% and the “% inhibition Apo pol 5'” value (DRC-2, 5', concentration 40) was 44%. For the same compound, the “% inhibition Apo pol 5'” value (DRC-2, 5', concentration 80) was 29%, the “% inhibition Apol 40'” value (DRC-2, 40', concentration 2.5) was 0.0959% and the “% inhibition Apol 40'” value (DRC-2, 40', concentration 5) was 6.65%. The “% inhibition Apol 40'” value (DRC-2, 40', concentration 10) was 18%, the “% inhibition Apol 40'” value (DRC-2, 40', concentration 20) was 30% and the “% inhibition Apol 40'” value (DRC-2, 40', concentration 40) was 50%. The “% inhibition Apol 40'” value (DRC-2, 40', concentration 80) was 55%, the “% inhibition ApPOL 90'” value (DRC-2, 90', concentration 2.5) was -0.625% and the “% inhibition ApPOL 90'” value (DRC-2, 90', concentration 5) was 5%. The “% inhibition ApPOL 90'” value (DRC-2, 90', concentration 10) was 15%, the “% inhibition ApPOL 90'” value (DRC-2, 90', concentration 20) was 26% and the “% inhibition ApPOL 90'” value (DRC-2, 90', concentration 40) was 48%. The “% inhibition ApPOL 90'” value (DRC-2, 90', concentration 80) was 56%, the “% inhibition apPOL 180'” value (DRC-2, 180', concentration 2.5) was -3% and the “% inhibition apPOL 180'” value (DRC-2, 180', concentration 5) was 1.18%. The “% inhibition apPOL 180'” value (DRC-2, 180', concentration 10) was 8%, the “% inhibition apPOL 180'” value (DRC-2, 180', concentration 20) was 16% and the “% inhibition apPOL 180'” value (DRC-2, 180', concentration 40) was 37%. The “% inhibition apPOL 180'” value (DRC-2, 180', concentration 80) was 54%, the “% inhibition Apo pol 5'” value (conc 5 (unit not given), 5', DRC-2) was 5% and the “% inhibition ApPOL 90'” value [2] was 5%. For the same compound, the “% inhibition Apo pol 5'” value [3] was 30%, the “% inhibition Apol 40'” value (conc 20 (unit not given), 40', DRC-2) was 30% and the “DNA Pol” value [4] was 20.

Reference: article PMC9090415, “Discovery of small molecule inhibitors of Plasmodium falciparum apicoplast DNA polymerase” (Journal of Enzyme Inhibition and Medicinal Chemistry, 2022)
